Measurements from patent US20150353495A1 (PORTOLA PHARMACEUTICALS, INC., priority 2010, published 2015).

Experiments:
JAK1 = molecular target: T1, JAK1 (Homo sapiens, UniProt P23458); assay: Z'-LYTE kinase assay JAK1; type: biochemical
T1 construct: 5 μl of catalytic domain recombinant Kinase enzyme+Tyr peptide substrate (Invitrogen, CA); purchased Invitrogen
Outline: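 Read-out is FRET fluorescence between coumarin and fluorescein on a Tyr6 peptide, lost when the development protease cleaves unphosphorylated substrate. Kinase reaction used recombinant catalytic domain with ATP, 1 h at room temperature, 1% DMSO.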

TYK2 = molecular target: T2, TYK2 (Homo sapiens, UniProt P29597); assay: Z'-LYTE kinase assay TYK2; type: biochemical
T2 construct: 5 μl of catalytic domain recombinant Kinase enzyme+Tyr peptide substrate (Invitrogen, CA); purchased Invitrogen
T2 sequence (P29597 897-1176 limits assumed): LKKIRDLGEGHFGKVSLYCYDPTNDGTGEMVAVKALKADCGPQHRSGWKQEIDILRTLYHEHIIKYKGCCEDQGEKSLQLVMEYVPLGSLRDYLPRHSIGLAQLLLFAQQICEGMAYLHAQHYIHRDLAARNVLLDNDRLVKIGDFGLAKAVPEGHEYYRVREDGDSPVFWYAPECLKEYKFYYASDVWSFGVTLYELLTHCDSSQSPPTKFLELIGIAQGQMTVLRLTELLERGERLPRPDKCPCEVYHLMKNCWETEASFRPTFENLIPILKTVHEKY
Outline: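 Recombinant catalytic-domain TYK2 with Tyr6 peptide in Z′-LYTE FRET format, 1% DMSO final, kinase reaction 1 h at room temperature, then protease development 1 h. Fluorescence read at 445/520 nm (excitation 400 nm), percent phosphorylation vs no-inhibitor control, IC50 from 4-parameter logistic fit.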

[1] = system: JAK1/3 signaling to STAT6 in Ramos B cells; assay: IL4 stimulation of JAK1/3 signaling to STAT6 in Ramos B cells (pSTAT6 Y641, FACS); type: cell-based; settings: Homo sapiens; for inhibition at 0.2 µM: 0.2 uM compound, read-out: IL-4/STAT6 in Ramos Percent Inhibition at 0.2 uM; for inhibition at 1 µM: 1.0 uM compound, read-out: IL-4/STAT6 in Ramos Percent Inhibition at 1.0 uM
Outline: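 Ramos cells in 10% FCS medium were pre-treated 1 h with compound, stimulated 15 min with 15 ng IL4, fixed in 2% paraformaldehyde and methanol-permeabilized. Intracellular phospho-STAT6 Y641 was stained with PE-conjugated antibody and quantified by flow cytometry.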

T1 sequence (P23458 875-1153 limits assumed): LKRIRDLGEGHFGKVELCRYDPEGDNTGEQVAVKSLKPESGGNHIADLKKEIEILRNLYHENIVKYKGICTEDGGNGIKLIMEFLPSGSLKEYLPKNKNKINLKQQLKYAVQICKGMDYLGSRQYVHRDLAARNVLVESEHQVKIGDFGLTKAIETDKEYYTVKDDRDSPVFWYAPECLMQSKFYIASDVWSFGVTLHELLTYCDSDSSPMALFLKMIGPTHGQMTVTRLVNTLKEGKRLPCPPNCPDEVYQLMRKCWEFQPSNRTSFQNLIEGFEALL

Row | IC50 (JAK1) | IC50 (TYK2) | Structure (SMILES) | inhibition at 0.2 µM [1] | inhibition at 1 µM [1]
1 | 100 to 1000 nM | 100 to 1000 nM | CC(=O)N1CCN(c2ccc(Nc3cc(NC4CC4)c(C(N)=O)cn3)cc2)CC1 [Example 2] | 29% | 77%
2 | 100 to 1000 nM | 100 to 1000 nM | CC(=O)N1CCN(c2ccc(Nc3cc(NCc4cccc(F)c4)c(C(N)=O)cn3)cc2)CC1 [Example 229] | 38% | 67%
